Test results: patent US6645970B2, “Indolylmaleimide derivatives” (Novartis AG, priority 2000, dated 2003)
Values belong to the molecule of their own block, whether it stands above or below them.

Experiments:
[1] = test system: spleen cells from CBA and BALB/c mice; test: Allogeneic Mixed Lymphocyte Reaction (MLR); format: cell-based; details: Mus musculus, two-way MLR, 3H-thymidine incorporation
Description: The two-way MLR is performed according to standard procedures (J. Immunol. Methods, 1973, 2, 279 and Meo T. et al., Immunological Methods, New York, Academic Press, 1979, 227-39). Briefly, spleen cells from CBA and BALB/c mice (1.6×10^5 cells from each strain per well in flat bottom tissue culture microtiter plates, 3.2×10^5 in total) are incubated in RPMI medium containing 10% FCS, 100 U/ml penicillin, 100 μg/mI streptomycin (Gibco BRL, Basel, Switzerland), 50 μM 2-mercaptoethanol (Fluka, Buchs, Switzerland) and serially diluted compounds. Seven three-fold dilution steps in duplicates per test compound are performed. After four days of incubation 1 μCi ^3H-thymidine is added. Cells are harvested after an additional five-hour incubation period, and incorporated ^3H-thymidine is determined according to standard procedures. Background values (low control) of the MLR are the proliferation of BALB/c cells alone. Low controls are subtracted from all values. High controls without any sample are taken as 100% proliferation. Percent inhibition by the samples is calculated, and the concentrations required for 50% inhibition (IC50 values) are determined.

Human recombinant PKCθ = Human recombinant PKCθ (Homo sapiens, UniProt Q04759); test: Protein Kinase C θ Assay; format: biochemical; details: 10 μM ATP
Description: Human recombinant PKCθ is used under the assay conditions as described above.

[2] = test system: Jurkat cells transfected with a human interleukin-2 promoter/reporter gene construct; test: CD28 costimulation assay; format: cell-based; details: stimulated Jurkat cells, IL-2 promoter luciferase reporter, 5.5 hours
Human recombinant PKCη = molecular target: T1, Human recombinant PKCη (Homo sapiens, UniProt P24723); test: Protein Kinase Cη Assay; format: biochemical; details: 10 μM ATP
T1 construct: purchased PanVera
Description: (§1) The compounds of formula I are tested for their activity on different PKC isoforms according to a published method (D. Geiges et al. Biochem. Pharmacol. 1997;53:865-875) The assay is performed in a 96-well polypropylene microtiterplate (Costar 3794) that has been previously siliconized with Sigmacote (Sigma SL-2). The reaction mixture (50 μl) contains 10 μl the relevant PKC isozyme together with 25 μl of the test compound and 15 μl of a mix solution that contains 200 μg/ml protamine sulfate, 10 mM Mg(NO3)2, 10 μM ATP (Boehringer 519987) and 3750 Bq of ^33P-ATP (Hartmann Analytic SFC301, 110TBq/mmol) in 20 mM Tris-buffer pH 7.4+0.1% BSA. Incubation is performed for 15 min at 32° C. in a microtiterplate shaking incubator (Biolabo Scientific Instruments). Reaction is stopped by adding 10 μl of 0.5 M Na2EDTA, pH 7.4. 50 μl of mixture are pipetted onto a pre-wetted phosphocellulose paper (Whatmann 3698-915) under gentle pressure. Non-incorporated ATP is washed away with 100 μl bi-dist H2O. The paper is washed twice in 0.5% H3PO4 for 15 min followed by 5 min in EtOH. Thereafter the paper is dryed and placed in an omnifilter (Packard 6005219), and overlayed with 10 μl/well of Microscint-O (Packard 6013611) before counting in a Topcount radioactivity counter (Packard). […] IC50 value are calculated from the graph by sigmoidal curve fitting. […]

[3] = test system: Rat Heart transplantation (graft survival); test: Rat Heart transplantation; format: in vivo; details: Lewis and BN strains, 30 mg/kg/day
Description: The strain combination used: Male Lewis (RT^1 haplotype) and BN (RT^1 haplotype). The animals are anaesthetised using inhalational isofluorane. […] The aorta is ligated and divided distal to the first branch and the brachiocephalic trunk is divided at the first bifurcation. The left pulmonary artery is ligated and divided and the right side divided but left open. All other vessels are dissected free, ligated and divided and the donor heart is removed into iced saline.
The recipient is prepared by dissection and cross-clamping of the infra-renal abdominal aorta and vena cava. The graft is implanted with end-to-side anastomoses, using 10/0 monofilament suture, between the donor brachiocephalic trunk and the recipient aorta and the donor right pulmonary artery to the recipient vena cava. The clamps are removed, the graft tethered retroabdominally, the abdominal contents washed with warm saline and the animal is closed and allowed to recover under a heating lamp. Graft survival is monitored by daily palpation of the beating donor heart through the abdominal wall. Rejection is considered to be complete when heart beat stops. Increases of graft survival are obtained in animals treated with a compound of formula I administered orally at a daily dose of 1 to 30 mg/kg.

Human recombinant PKCα = molecular target: T2, Human recombinant PKCα (Homo sapiens, UniProt P17252); test: Protein Kinase Cα Assay; format: biochemical; details: 10 μM ATP
T2 construct: purchased Oxford Biomedical Research
Description: The compounds of formula I are tested for their activity on different PKC isoforms according to a published method (D. Geiges et al. Biochem. Pharmacol. 1997;53:865-875) The assay is performed in a 96-well polypropylene microtiterplate (Costar 3794) that has been previously siliconized with Sigmacote (Sigma SL-2). The reaction mixture (50 μl) contains 10 μl the relevant PKC isozyme together with 25 μl of the test compound and 15 μl of a mix solution that contains 200 μg/ml protamine sulfate, 10 mM Mg(NO3)2, 10 μM ATP (Boehringer 519987) and 3750 Bq of ^33P-ATP (Hartmann Analytic SFC301, 110TBq/mmol) in 20 mM Tris-buffer pH 7.4+0.1% BSA. Incubation is performed for 15 min at 32° C. in a microtiterplate shaking incubator (Biolabo Scientific Instruments). Reaction is stopped by adding 10 μl of 0.5 M Na2EDTA, pH 7.4. 50 μl of mixture are pipetted onto a pre-wetted phosphocellulose paper (Whatmann 3698-915) under gentle pressure. Non-incorporated ATP is washed away with 100 μl bi-dist H2O. The paper is washed twice in 0.5% H3PO4 for 15 min followed by 5 min in EtOH. Thereafter the paper is dryed and placed in an omnifilter (Packard 6005219), and overlayed with 10 μl/well of Microscint-O (Packard 6013611) before counting in a Topcount radioactivity counter (Packard). […] IC50 value are calculated from the graph by sigmoidal curve fitting.

Human recombinant PKCε = molecular target: T3, Human recombinant PKCε (Homo sapiens, UniProt Q02156); test: Protein Kinase Cε Assay; format: biochemical; details: 10 μM ATP
T3 construct: purchased Oxford Biomedical Research
T3 sequence (Q02156 1-737): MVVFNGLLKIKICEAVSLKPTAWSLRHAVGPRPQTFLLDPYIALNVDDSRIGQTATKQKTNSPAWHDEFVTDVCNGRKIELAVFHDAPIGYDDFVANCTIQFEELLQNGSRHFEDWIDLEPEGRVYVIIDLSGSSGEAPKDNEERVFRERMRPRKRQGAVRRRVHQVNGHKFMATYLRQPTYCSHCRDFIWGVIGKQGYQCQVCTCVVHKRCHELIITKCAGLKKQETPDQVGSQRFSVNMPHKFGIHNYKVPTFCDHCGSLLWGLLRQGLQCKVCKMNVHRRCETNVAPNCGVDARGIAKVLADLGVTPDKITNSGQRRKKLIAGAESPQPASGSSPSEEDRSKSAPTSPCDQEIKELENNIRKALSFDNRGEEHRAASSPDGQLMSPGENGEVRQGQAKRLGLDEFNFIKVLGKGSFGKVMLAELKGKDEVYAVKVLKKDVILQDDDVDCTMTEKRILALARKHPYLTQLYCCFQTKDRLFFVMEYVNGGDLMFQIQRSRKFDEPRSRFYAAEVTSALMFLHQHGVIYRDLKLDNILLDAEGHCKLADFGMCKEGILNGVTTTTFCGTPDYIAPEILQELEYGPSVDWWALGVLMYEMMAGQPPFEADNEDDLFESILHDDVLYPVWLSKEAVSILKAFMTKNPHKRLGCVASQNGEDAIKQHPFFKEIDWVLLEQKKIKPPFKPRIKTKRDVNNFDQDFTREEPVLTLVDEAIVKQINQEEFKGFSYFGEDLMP
Description: as §1

Human recombinant PKCβ1 = molecular target: T4, Human recombinant PKCβ1 (Homo sapiens, UniProt P05771); test: Protein Kinase Cβ1 Assay; format: biochemical; details: human recombinant PKCβ1, 10 μM ATP
T4 construct: purchased Oxford Biomedical Research
Description: as §1

Human recombinant PKCδ = molecular target: T5, Human recombinant PKCδ (Homo sapiens, UniProt Q05655); test: Protein Kinase Cδ Assay; format: biochemical; details: 10 μM ATP
T5 construct: purchased Oxford Biomedical Research
Description: as §1

T4 sequence (P05771 whole entry): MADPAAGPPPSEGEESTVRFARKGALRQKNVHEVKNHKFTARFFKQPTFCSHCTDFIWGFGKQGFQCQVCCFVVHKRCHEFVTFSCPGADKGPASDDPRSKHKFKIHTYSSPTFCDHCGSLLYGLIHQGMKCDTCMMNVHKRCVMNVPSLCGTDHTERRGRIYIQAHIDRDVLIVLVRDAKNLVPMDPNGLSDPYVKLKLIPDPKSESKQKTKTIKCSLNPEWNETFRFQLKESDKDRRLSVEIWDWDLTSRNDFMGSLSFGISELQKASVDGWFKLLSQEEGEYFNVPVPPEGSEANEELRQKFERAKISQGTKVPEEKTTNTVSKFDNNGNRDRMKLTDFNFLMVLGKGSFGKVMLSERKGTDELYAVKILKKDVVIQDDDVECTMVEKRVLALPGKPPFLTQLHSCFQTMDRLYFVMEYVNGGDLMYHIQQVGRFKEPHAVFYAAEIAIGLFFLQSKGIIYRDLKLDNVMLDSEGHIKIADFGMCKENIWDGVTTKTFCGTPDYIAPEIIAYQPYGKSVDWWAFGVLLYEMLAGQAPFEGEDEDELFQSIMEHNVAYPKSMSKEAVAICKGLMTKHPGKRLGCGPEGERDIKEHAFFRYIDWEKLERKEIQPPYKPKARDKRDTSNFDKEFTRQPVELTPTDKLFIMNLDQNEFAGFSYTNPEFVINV
T5 sequence (Q05655 whole entry): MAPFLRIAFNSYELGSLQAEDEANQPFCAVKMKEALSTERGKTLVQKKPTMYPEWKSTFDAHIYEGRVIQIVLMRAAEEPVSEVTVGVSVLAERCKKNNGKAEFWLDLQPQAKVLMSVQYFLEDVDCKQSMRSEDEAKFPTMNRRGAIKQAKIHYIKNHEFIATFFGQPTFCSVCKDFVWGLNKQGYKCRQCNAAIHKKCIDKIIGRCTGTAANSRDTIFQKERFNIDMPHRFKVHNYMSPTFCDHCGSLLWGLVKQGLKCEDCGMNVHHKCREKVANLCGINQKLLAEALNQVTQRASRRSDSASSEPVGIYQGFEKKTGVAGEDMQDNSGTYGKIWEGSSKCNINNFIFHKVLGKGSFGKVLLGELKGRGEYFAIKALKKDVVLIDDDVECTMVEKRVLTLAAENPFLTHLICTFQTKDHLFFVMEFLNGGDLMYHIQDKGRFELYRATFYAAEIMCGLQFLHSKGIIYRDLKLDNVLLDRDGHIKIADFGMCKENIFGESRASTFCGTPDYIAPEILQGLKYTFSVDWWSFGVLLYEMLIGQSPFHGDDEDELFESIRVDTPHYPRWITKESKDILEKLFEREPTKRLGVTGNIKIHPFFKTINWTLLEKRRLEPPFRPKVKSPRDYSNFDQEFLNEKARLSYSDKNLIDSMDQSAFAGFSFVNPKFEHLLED
T1 sequence (P24723 whole entry): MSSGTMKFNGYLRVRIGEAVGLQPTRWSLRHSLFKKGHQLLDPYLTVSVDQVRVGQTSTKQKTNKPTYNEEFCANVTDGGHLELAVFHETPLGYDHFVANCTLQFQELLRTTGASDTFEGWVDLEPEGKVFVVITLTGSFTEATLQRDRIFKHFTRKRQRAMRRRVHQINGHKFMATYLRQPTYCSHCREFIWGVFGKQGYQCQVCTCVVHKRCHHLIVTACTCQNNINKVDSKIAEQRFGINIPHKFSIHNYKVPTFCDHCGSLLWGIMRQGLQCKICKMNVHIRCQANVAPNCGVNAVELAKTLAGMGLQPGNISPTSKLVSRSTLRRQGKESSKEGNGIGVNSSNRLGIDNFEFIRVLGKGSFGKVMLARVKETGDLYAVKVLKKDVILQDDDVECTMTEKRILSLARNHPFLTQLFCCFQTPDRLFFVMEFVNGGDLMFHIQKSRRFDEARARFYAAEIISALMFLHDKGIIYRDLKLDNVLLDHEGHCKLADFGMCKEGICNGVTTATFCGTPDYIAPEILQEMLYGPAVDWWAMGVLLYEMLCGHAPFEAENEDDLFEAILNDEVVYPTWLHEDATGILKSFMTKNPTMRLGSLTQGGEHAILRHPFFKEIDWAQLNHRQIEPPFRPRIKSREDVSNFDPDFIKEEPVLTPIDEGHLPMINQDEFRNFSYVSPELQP
Human recombinant PKCθ, sequence (Q04759 whole entry): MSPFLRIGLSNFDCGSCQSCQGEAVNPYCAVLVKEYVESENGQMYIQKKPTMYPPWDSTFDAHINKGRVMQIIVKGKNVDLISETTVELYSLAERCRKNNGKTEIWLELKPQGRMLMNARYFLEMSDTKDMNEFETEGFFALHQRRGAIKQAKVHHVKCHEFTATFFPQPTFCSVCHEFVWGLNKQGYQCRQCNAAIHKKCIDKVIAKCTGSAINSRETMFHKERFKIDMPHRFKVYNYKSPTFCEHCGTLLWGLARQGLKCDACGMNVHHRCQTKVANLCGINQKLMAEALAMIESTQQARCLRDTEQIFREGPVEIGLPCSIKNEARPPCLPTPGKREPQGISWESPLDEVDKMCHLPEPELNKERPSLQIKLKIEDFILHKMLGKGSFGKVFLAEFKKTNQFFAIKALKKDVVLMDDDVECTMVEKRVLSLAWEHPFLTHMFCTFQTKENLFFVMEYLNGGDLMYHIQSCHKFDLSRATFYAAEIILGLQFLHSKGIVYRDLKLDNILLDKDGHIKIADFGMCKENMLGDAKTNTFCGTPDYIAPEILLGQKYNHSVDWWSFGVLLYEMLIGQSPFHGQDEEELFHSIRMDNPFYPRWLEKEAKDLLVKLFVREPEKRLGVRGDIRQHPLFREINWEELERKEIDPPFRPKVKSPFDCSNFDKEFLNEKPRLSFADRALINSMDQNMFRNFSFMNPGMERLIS

SMILES: CN1CCN(c2nc(C3=C(c4c[nH]c5ccccc45)C(=O)NC3=O)c3ccccc3n2)CC1 [Example 56, 3-(1.H.-indol-3-yl)-4-[2-(4-methyl-piperazin-1-yl)-quinazolin-4-yl]-pyrrole-2,5-dione]
IC50 [1]: 168 ± 20 nM
IC50 (Human recombinant PKCθ): < 10 nM
IC50 [2]: 42 ± 12 nM

SMILES: CC(C)N1CCN(c2nc(C3=C(c4c[nH]c5ccccc45)C(=O)NC3=O)c3ccccc3n2)CC1 [Example 85]
IC50 (Human recombinant PKCη): 50 ± 9 nM

SMILES: Cn1cc(C2=C(c3nc(N4CCNC5(CC5)C4)nc4ccccc34)C(=O)NC2=O)c2ccccc21 [Example 100]
graft survival [3]: significantly increases the graft survival
IC50 (Human recombinant PKCα): 39 ± 15 nM

SMILES: Cc1cccc2c(C3=C(c4nc(N5CCN(C)CC5)nc5ccccc45)C(=O)NC3=O)c[nH]c12 [Example 139]
IC50 (Human recombinant PKCε): 20 ± 7 nM

Further lines, results first:

IC50 (Human recombinant PKCβ1): 8 ± 2 nM
SMILES: CN1CCN(c2cc(C3=C(c4c[nH]c5ccccc45)C(=O)NC3=O)c3ccccc3n2)CC1 [Example 163, 3-(1.H.-indol-3-yl)-4-[2-(4-methyl-piperazin-1-yl)-quinolin-4-yl]-pyrrole-2,5-dione]

IC50 (Human recombinant PKCδ): 18 ± 8 nM
SMILES: CN1CCN(c2cc3ccccc3c(C3=C(c4c[nH]c5ccccc45)C(=O)NC3=O)n2)CC1 [Example 181, 3-(1.H.-Indol-3-yl)-4-[3-(4-methyl-piperazin-1-yl)-isoquinolin-1-yl]-pyrrole-2,5-dione]
